Reference: PubChem BioAssay (NCI)
“And” between values parts separate entries of the source, which are not always exact repeats. Equal entries are not always repeated.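 96-well plates; 48 h exposure; 5 concentrations. Endpoints by linear interpolation between flanking doses. Not reached: highest tested concentration assigned. The concentration for 50% growth inhibition is given as GI50. At the TGI there is no net growth.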

What was measured:
Assay in all cases: DTP human tumour cell line panel, 48 h
UO-31 renal = test system: UO-31 renal
HOP-92 NSCLC = test system: HOP-92 NSCLC
T-47D breast = test system: T-47D breast
NCI/ADR-RES ovarian = test system: NCI/ADR-RES ovarian
IGROV1 ovarian = test system: IGROV1 ovarian
HL-60(TB) leukemia = test system: HL-60(TB) leukemia
SNB-75 CNS = test system: SNB-75 CNS
MCF7 breast = test system: MCF7 breast
OVCAR-8 ovarian = test system: OVCAR-8 ovarian
MALME-3M melanoma = test system: MALME-3M melanoma

Structure (SMILES)	GI50 (UO-31 renal) [µM]	TGI (UO-31 renal)	GI50 (HOP-92 NSCLC) [µM]	TGI (HOP-92 NSCLC)	GI50 (T-47D breast) [µM]	TGI (T-47D breast)	GI50 (NCI/ADR-RES ovarian) [µM]	TGI (NCI/ADR-RES ovarian) [µM]	GI50 (IGROV1 ovarian) [µM]	TGI (IGROV1 ovarian)	GI50 (HL-60(TB) leukemia) [µM]	TGI (HL-60(TB) leukemia)	GI50 (SNB-75 CNS) [µM]	TGI (SNB-75 CNS)	GI50 (MCF7 breast) [µM]	TGI (MCF7 breast) [µM]	GI50 (OVCAR-8 ovarian) [µM]	TGI (OVCAR-8 ovarian) [µM]	GI50 (MALME-3M melanoma)	TGI (MALME-3M melanoma)
O=C(CCCSc1nc(-c2ccccc2)cc(-c2ccc(Cl)cc2)n1)NO	0.352	2.1 µM	2.29	8.26 µM	1.92	16.2 µM	0.351	2.58	2.08	11.7 µM	2.35	9.26 µM	2.08	10.4 µM	2.29	12.4	0.596	16.2	2.7 µM	12.1 µM
O=C(c1cccnc1)c1cc(-c2ccccn2)c(=O)n2ccccc12	> 100	> 100 µM	> 100	> 100 µM	> 100	> 100 µM	> 100	> 100	> 100	> 100 µM	> 100	> 100 µM	> 100	> 100 µM	> 100	> 100	> 100	> 100	> 100 µM	> 100 µM
COCCNc1cc(NC(=O)N2CCCc3cc(CN4CCN(C)CC4=O)c(C=O)nc32)ncc1C#N	> 50	> 50 µM	1.59	21.6 µM	46.5	> 50 µM	> 50	> 50	> 50	> 50 µM	> 50	> 50 µM	16	> 50 µM	40.4	> 50	> 50	> 50	> 50 µM	> 50 µM
c1ccc(CSc2nnc3c4ccccc4c4ccccc4c3n2)cc1	–	> 100 µM	–	59.7 µM	–	> 100 µM	–	> 100	–	> 46.6 µM	–	> 100 µM	–	21.6 µM	–	> 100	–	> 100	–	> 100 µM
CN(C)CC1CCCCCC(CN(C)C)C1=O (stereo unspecified)	1.77	4.5 µM	2.69	8.11 µM	2.12	12.5 µM	3.39	14.3	15.1	36.3 µM	2.24	8.57 µM	12.2	27.5 µM	2.85	15.3	2.61	8.54	2.19 µM	5.01 µM
O=C(COc1cccc(/C=C2\COc3ccc(Cl)cc3C2=O)c1)c1ccc(Cl)cc1	5.13	19.4 µM	0.536	13.4 µM	11.4	26.1 µM	20.5	69.6	0.54	3.7 µM	8.99	31.5 µM	4.73	22.2 µM	1.25	4.76	15.8	37.5	17.9 µM	34.2 µM
COc1cc2c3c(n(C)c(=O)c2cc1OC)-c1cc2c(cc1/C3=C\C(N)CN)OCO2 (stereo unspecified)	4.44	> 36.5 µM	0.368	6.8 µM	1.94	10.3 µM	> 74.8	> 100	0.791	–	8.69	> 100 µM	3.6	> 31.3 µM	0.51	7	1.75	18.8	0.284 µM	4.04 µM
CC1(C)CC[C@]2(C(=O)N3CCOCC3)CC[C@]3(C)C(=CC[C@@H]4[C@@]5(C)C/C(=C/c6ccncc6)C(=O)C(C)(C)[C@@H]5CC[C@]43C)[C@@H]2C1	0.893	14.2 µM	0.0347	11.6 µM	0.781	> 100 µM	2.5	46.4	3.09	> 100 µM	1.16	3.96 µM	3.21	> 100 µM	0.509	15.3	3.52	> 100	1.57 µM	4.59 µM
S=C(Nc1cc(Cl)c(Cl)cc1Cl)SCc1ccccc1	–	> 100 µM	–	75.8 µM	–	> 100 µM	–	54.6	–	> 100 µM	–	50.4 µM	–	> 100 µM	–	> 100	–	51.5	–	59.3 µM
CCCOc1nc(SCCC)nc2c1cnn2-c1ccccc1	> 100	> 100 µM	2.93	> 100 µM	> 100	> 100 µM	> 100	> 100	> 100	> 100 µM	38	> 100 µM	> 100	> 100 µM	> 100	> 100	> 100	> 100	> 100 µM	> 100 µM
CSC1(SC2=NCCN2)SC2(NCCN2)S1	–	32.2 µM	–	28.4 µM	–	5.91 µM	–	> 91.6	–	35.7 µM	–	55.9 µM	–	32.2 µM	–	12.8	–	43	–	34.3 µM
CCN(CC)c1ccc(C(=N)c2ccc(N(C)C)cc2)cc1	1.45	7.73 µM	1.05	4.22 µM	1.27	9.42 µM	0.187	2.94	0.949	13 µM	0.886	15.9 µM	2.26	> 21.7 µM	0.197	7.25	1.94	6.51	0.205 µM	4.76 µM
COc1cc(C(=O)/C=C/c2cccnc2Nc2ccccc2)cc(OC)c1OC	1.19	2.57 µM	0.392	2.07 µM	1.43	3.07 µM	1.03	4.56	2.37	5.3 µM	1.52	4.98 µM	1.13	2.34 µM	0.357	1.64	1.27	3.49	1.92 µM	3.84 µM
COc1ccc2c(c1)C(C)Cc1c(Cl)nc(C)nc1N2C (stereo unspecified)	3.99	36.1 µM	3.95	29.5 µM	3.43	> 100 µM	1.7	16.7	4.41	> 100 µM	2.54	> 100 µM	1.94	9.04 µM	0.791	32.7	3.58	15.4	12.4 µM	37.8 µM
CS(=O)(=O)Nc1ccc(N=Cc2c(O)[nH]c3ccccc23)cc1	> 8.56	> 25 µM	> 25	> 25 µM	> 25	> 25 µM	> 25	> 25	> 25	> 25 µM	> 25	> 25 µM	> 25	> 25 µM	> 25	> 25	> 25	> 25	> 25 µM	> 25 µM
CCN1C(=O)N(CC)C2C1NN=c1s/c(=C\c3cc4ccccc4[nH]3)c(=O)n12 (stereo unspecified)	0.0523	10.4 µM	0.0681	6.28 µM	0.0348	5.94 µM	0.0213	2.3	0.0139	12.2 µM	< 0.0117	< 0.0191 µM	< 0.0149	0.641 µM	< 0.01	14.6	< 0.0191	31.3	0.0388 µM	36.9 µM
Nc1nc(N)c(N=O)c(OCC2CCCCC2)n1	3.24	39.1 µM and 39.7 µM	2.25	8.41 µM and 59.2 µM	4.09	> 58.6 µM and 23.9 µM	–	> 100	3.69	24.1 µM and 24.5 µM	10.7	53.8 µM and 58.9 µM	–	42.3 µM and 50.2 µM	3.46	> 100	–	> 100	3.06 µM and 7.32 µM	36.8 µM and 52.7 µM
COc1ccc(/C=C2\CCC(CN(C)C)C2=O)cc1OC (stereo unspecified)	–	24.6 µM	–	21 µM	–	44.5 µM	–	7.19	–	33.1 µM	–	8.62 µM	–	30.5 µM	–	8.51	–	8.25	–	11.7 µM
